Experimental data from patent US20210255193A1, “LYSINE REACTIVE PROBES AND USES THEREOF” (The Scripps Research Institute, priority 2017, published 2021).

Legend:
[1] = target: T1, WARS Tryptophan--tRNA ligase, cytoplasmic (Homo sapiens, UniProt P23381); assay: competitive isoTOP-ABPP; assay type: binding; details: 50 uM, in vitro; for R value (DMSO/fragment) for probe 1 labeling: P23381_K256; for R value (DMSO/fragment) for probe 1 labeling / isoTOP-ABPP reactivity ratio at lysine P23381_K256: 231 sol; for isoTOP-ABPP ratio (R) at liganded lysine P23381_K256: sol, 231
T1 construct: isoTOP-ABPP experiments performed in cell lysates (in vitro); endogenous in cells; host or cells: soluble proteome of human cancer cell lines (MDA-MB-231; Ramos and Jurkat also prepared)
T1 sequence (P23381 1-471): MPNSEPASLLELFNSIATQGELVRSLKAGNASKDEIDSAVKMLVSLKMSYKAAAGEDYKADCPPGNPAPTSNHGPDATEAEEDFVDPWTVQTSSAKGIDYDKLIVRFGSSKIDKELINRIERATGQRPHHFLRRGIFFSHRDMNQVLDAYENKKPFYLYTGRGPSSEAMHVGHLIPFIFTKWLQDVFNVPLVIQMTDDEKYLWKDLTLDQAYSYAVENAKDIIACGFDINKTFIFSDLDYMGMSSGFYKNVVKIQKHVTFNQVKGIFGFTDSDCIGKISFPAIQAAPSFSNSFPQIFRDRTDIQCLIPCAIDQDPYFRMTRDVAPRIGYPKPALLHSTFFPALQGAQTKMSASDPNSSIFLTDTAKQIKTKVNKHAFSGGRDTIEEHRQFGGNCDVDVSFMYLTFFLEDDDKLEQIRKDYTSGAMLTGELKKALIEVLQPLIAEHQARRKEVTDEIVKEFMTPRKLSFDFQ
Method: (§1) In vitro covalent fragment treatment for isoTOP-ABPP. All compounds were made up as solutions in DMSO (100×) and were used at a final concentration of 50 μM for activated esters and 100 μM for guanidinylating agents. For each profiling sample, 0.5 ml of lysate was treated with 5 μl of the 100× compound stock solution or 5 μl of DMSO. Samples were treated with activated esters for
(§2) STP-alkyne labeling and click chemistry. For concentration-dependent reactivity measurements by isoTOP-ABPP, 0.5 ml proteome aliquots were treated at ambient temperature with 1 mM STP-alkyne 1 (5 μl of 100 mM stock in DMSO) and 0.1 mM STP alkyne 1 (5 μl of 10 mM stock in DMSO), respectively. For competitive isoTOP-ABPP, after in vitro fragment treatment (detailed above), the samples were labeled for 1 h at ambient temperature with 0.1 mM STP-alkyne 1 (5 μl of 10 mM stock in DMSO). Samples were conjugated by copper-mediated azide-alkyne cycloaddition (CuAAC) to either the light (1 mM STP-alkyne or fragment treated) or heavy (0.1 mM STP-alkyne or DMSO treated) TEV tags (10 μl of 5 mM stocks in DMSO, final concentration=100 μM) using tris(2-carboxyethyl)phosphine hydrochloride
(§3) R value calculation and processing. The ratios of light and heavy MS1 peaks for each unique peptide were quantified with a CIMAGE software using default parameters (3 MS1 acquisitions per peak and signal to noise threshold set to 2.5). For reactivity measurements by isoTOP-ABPP, the R value was calculated from the ratio of MS1 peak areas, comparing the 1 mM STP alkyne sample (light TEV tag) with the 0.1 mM STP alkyne sample (heavy TEV tag). For competitive isoTOP-ABPP, the R value was calculated from the ratio of MS1 peak areas, comparing the DMSO treated sample (heavy TEV tag) with the compound treated sample (light TEV tag). […] Ratios for unique peptide entries are calculated for each experiment; overlapping peptides with the same modified lysine (for example, different charge states, MudPIT chromatographic steps or tryptic termini) are grouped together and the median ratio is reported as the final ratio (R). The peptide ratios reported by CIMAGE were further filtered to ensure the removal or correction of low-quality ratios in each individual data set. The quality filters applied were the following: removal of half tryptic peptides; for ratios with high standard deviations from the median (90% of the median or above) the lowest ratio was taken instead of the median; removal of peptides with R=20 and only a single MS2 event triggered during the elution of the parent ion; manual annotation of all the peptides with ratios of 20, removing any peptides with low quality elution profiles that remained after the previous curation steps (only done for competitive isoTOP-ABPP).
(§4) Cross-data processing for fragment screening. For compound treated samples, biological replicates of the same condition were averaged, if the standard deviation was below 60% of the mean; otherwise, for lysines with at least one R value <4 for a particular compound, the lowest value of the ratio set was taken. For lysines, where all R values for a particular compound were ≥4, the average was reported. For peptides containing several possible modified lysines, the lysine with the highest number of quantification events was used for analysis and the remaining, redundant peptides were reported as alternative modification sites. Peptides included in the aggregate dataset (those used for further bioinformatics and statistical analyses) were required to have been quantified in 2 experiments for competitive isoTOP-ABPP. Lysines were categorized as liganded, if they had at least one ratio R≥4 (hit fragments). For liganded lysines with R=20 for all liganding events, lysines were required to have been quantified with R=20 in two separate experiments and were further required to have been quantified with R<20 in one additional experiment.

[2] = target: T2, AGFG1 Arf-GAP domain and FG repeat-containing protein 1 (Homo sapiens, UniProt P52594); assay: competitive isoTOP-ABPP; assay type: binding; set-up: key to isoTOP-ABPP reactivity ratio at lysine P52594_K134: R = MS1 peak area ratio, DMSO (heavy) / compound-treated (light); details: for R value (DMSO/fragment) for probe 1 labeling: P52594_K134; for R value (DMSO/fragment) for probe 1 labeling / isoTOP-ABPP reactivity ratio at lysine P52594_K134 / isoTOP-ABPP ratio (R) at liganded lysine P52594_K134: 50 uM, in vitro; for R value (DMSO/fragment) for probe 1 labeling / isoTOP-ABPP reactivity ratio at lysine P52594_K134: 231 sol; for isoTOP-ABPP ratio (R) at liganded lysine P52594_K134: sol, 231; for isoTOP-ABPP ratio, lysine P52594_K134: 50 uM_231_sol_in vitro
T2 construct: isoTOP-ABPP experiments performed in cell lysates (in vitro); endogenous in cells; host or cells: soluble proteome of human cancer cell lines (MDA-MB-231, Ramos, Jurkat)
T2 sequence (P52594 1-562): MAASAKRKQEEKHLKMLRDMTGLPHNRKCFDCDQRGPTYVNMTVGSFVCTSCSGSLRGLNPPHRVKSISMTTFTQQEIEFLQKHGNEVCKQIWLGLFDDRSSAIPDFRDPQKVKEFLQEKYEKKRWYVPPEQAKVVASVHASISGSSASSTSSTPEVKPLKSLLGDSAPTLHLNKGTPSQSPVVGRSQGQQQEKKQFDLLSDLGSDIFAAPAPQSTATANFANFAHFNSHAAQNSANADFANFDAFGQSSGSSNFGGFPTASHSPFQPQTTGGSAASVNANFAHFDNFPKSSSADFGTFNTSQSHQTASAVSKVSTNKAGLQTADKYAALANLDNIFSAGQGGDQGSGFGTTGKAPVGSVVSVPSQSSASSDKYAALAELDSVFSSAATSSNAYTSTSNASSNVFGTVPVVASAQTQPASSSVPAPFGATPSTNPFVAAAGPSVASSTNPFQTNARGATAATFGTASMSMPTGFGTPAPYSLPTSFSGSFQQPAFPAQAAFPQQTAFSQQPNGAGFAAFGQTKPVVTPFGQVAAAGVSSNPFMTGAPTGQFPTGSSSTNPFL
Method: as §1, §2, §3, §4

| SMILES | isoTOP-ABPP reactivity ratio at lysine P52594_K134 [2] | isoTOP-ABPP reactivity ratio at lysine P23381_K256 [1] | further results |
| --- | --- | --- | --- |
| O=C(CCc1cn(-c2ccccc2)nc1-c1ccccc1)Oc1c(F)c(F)c(F)c(F)c1F [fragment 19, Pentafluorophenyl 3-(1,3-diphenyl-1H-pyrazol-4-yl)propanoate] | – | – | R value (DMSO/fragment) for probe 1 labeling [1]: 1.2; R value (DMSO/fragment) for probe 1 labeling [2]: 1.0 |
| O=C(Oc1c(F)c(F)c(F)c(F)c1F)C(c1ccccc1)c1ccccc1 [fragment 20, Pentafluorophenyl 2,2-diphenylacetate] | – | – | R value (DMSO/fragment) for probe 1 labeling [1]: 1.3; R value (DMSO/fragment) for probe 1 labeling [2]: 1.0 |
| O=C(Oc1c(F)c(F)c(F)c(F)c1F)c1cc(C(F)(F)F)cc(C(F)(F)F)c1 [fragment 21, Pentafluorophenyl 3,5-bis(trifluoromethyl)benzoate] | – | – | R value (DMSO/fragment) for probe 1 labeling [1]: 1.1 |
| Cn1cc(CC(=O)Oc2c(F)c(F)c(F)c(F)c2F)c2ccccc21 [fragment 22, Pentafluorophenyl 2-(1-methyl-1H-indol-3-yl)acetate] | – | – | R value (DMSO/fragment) for probe 1 labeling [1]: 1.0; R value (DMSO/fragment) for probe 1 labeling [2]: 1.4 |
| COc1cc(CCC(=O)Oc2c(F)c(F)c(F)c(F)c2F)cc(OC)c1OC [fragment 23, Pentafluorophenyl 3-(3,4,5-trimethoxyphenyl)propanoate] | – | – | R value (DMSO/fragment) for probe 1 labeling [2]: 1.7 |
| O=C(Oc1c(F)c(F)c(F)c(F)c1F)C1CCN(C(=O)OCc2ccccc2)CC1 [fragment 24, 1-Benzyl 4-(pentafluorophenyl) piperidine-1,4-dicarboxylate] | 1.5 | – | – |
| O=C(Oc1c(F)c(F)c(F)c(F)c1F)c1ccc2ccccc2n1 [fragment 25, Pentafluorophenyl quinoline-2-carboxylate] | 1.1 | 4.4 | – |
| O=C(CCc1coc2cc(F)ccc2c1=O)Oc1c(F)c(F)c(F)c(F)c1F [fragment 26, Pentafluorophenyl 3-(7-fluoro-4-oxo-4H-chromen-3-yl)propanoate] | 2.2 | 2.3 | – |
| O=C(CN1C(=O)c2ccccc2C1=O)Oc1c(F)c(F)c(F)c(F)c1F [fragment 27, Pentafluorophenyl 2-(1,3-dioxoisoindolin-2-yl)acetate] | 1.5 | 2.7 | – |
| CCn1cc(C(=O)Oc2c(F)c(F)c(F)c(F)c2F)c(=O)c2ccc(C)nc21 [fragment 28, Pentafluorophenyl 1-ethyl-7-methyl-4-oxo-1,4-dihydro-1,8-naphthyridine-3-carboxylate] | 1.0 | 1.0 | – |
| O=C(CCc1cn(-c2ccccc2)nc1-c1ccccc1)Oc1ccc([N+](=O)[O-])cc1[N+](=O)[O-] [fragment 29, 2,4-Dinitrophenyl 3-(1,3-diphenyl-1H-pyrazol-4-yl)propanoate] | 1.4 | 0.9 | – |
| O=C(Oc1ccc([N+](=O)[O-])cc1[N+](=O)[O-])C(c1ccccc1)c1ccccc1 [fragment 30, 2,4-Dinitrophenyl 2,2-diphenylacetate] | 14.3 | 1.1 | – |
| O=C(Oc1ccc([N+](=O)[O-])cc1[N+](=O)[O-])c1cc(C(F)(F)F)cc(C(F)(F)F)c1 [fragment 31, 2,4-Dinitrophenyl 3,5-bis(trifluoromethyl)benzoate] | 1.2 | 0.9 | – |
| Cn1cc(CC(=O)Oc2ccc([N+](=O)[O-])cc2[N+](=O)[O-])c2ccccc21 [fragment 32, 2,4-Dinitrophenyl 2-(1-methyl-1H-indol-3-yl)acetate] | 19.9 | 0.9 | – |
| COc1cc(CCC(=O)Oc2ccc([N+](=O)[O-])cc2[N+](=O)[O-])cc(OC)c1OC [fragment 33, 2,4-Dinitrophenyl 3-(3,4,5-trimethoxyphenyl)propanoate] | 20.0 | 0.8 | – |
| O=C(Oc1ccc([N+](=O)[O-])cc1[N+](=O)[O-])C1CCN(C(=O)OCc2ccccc2)CC1 [fragment 34, 1-Benzyl 4-(2,4-dinitrophenyl) piperidine-1,4-dicarboxylate] | – | – | isoTOP-ABPP ratio (R) at liganded lysine P23381_K256 [1]: 1.0; isoTOP-ABPP ratio (R) at liganded lysine P52594_K134 [2]: 20.0 |
| O=C(Oc1ccc([N+](=O)[O-])cc1[N+](=O)[O-])c1ccc2ccccc2n1 [fragment 35, 2,4-Dinitrophenyl quinoline-2-carboxylate] | – | – | isoTOP-ABPP ratio (R) at liganded lysine P23381_K256 [1]: 1.1 |
| O=C(CCc1coc2cc(F)ccc2c1=O)Oc1ccc([N+](=O)[O-])cc1[N+](=O)[O-] [fragment 36, 2,4-Dinitrophenyl 3-(7-fluoro-4-oxo-4H-chromen-3-yl)propanoate] | – | – | isoTOP-ABPP ratio (R) at liganded lysine P23381_K256 [1]: 1.0; isoTOP-ABPP ratio (R) at liganded lysine P52594_K134 [2]: 20.0 |
| O=C(Oc1c(F)c(F)cc(F)c1F)c1cc(C(F)(F)F)cc(C(F)(F)F)c1 [fragment 48, 2,3,5,6-Tetrafluorophenyl 3,5-bis(trifluoromethyl)benzoate] | – | – | isoTOP-ABPP ratio, lysine P52594_K134 [2]: 1.0 |
| NC(=O)c1cc(C(F)(F)F)cc(C(F)(F)F)c1 [fragment 51, reference compound] | – | – | isoTOP-ABPP ratio, lysine P52594_K134 [2]: 0.9 |
